Reference: patent US20230089867A1, “CYCLIC PENTAMER COMPOUNDS AS PROPROTEIN CONVERTASE SUBTILISIN/KEXIN TYPE 9 (PCSK9) INHIBITORS FOR THE TREATMENT OF METABOLIC DISORDER” (Novartis AG, priority 2018, published 2023)

Target: human PCSK9 (Homo sapiens, UniProt Q8NBP7)
Assay: PCSK9 ligand binding TR-FRET assay (interference with binding of human PCSK9 to human LDLR)
Conditions: for Max % inhibition: PCSK9 FRET assay, efficacy (Amax), 100% = 1 uM unlabeled human PCSK9, 0% = DMSO; for IC50: TR-FRET, human PCSK9 Alexa Fluor 647 / human LDLR extracellular domain-Europium Kryptate, read-out: PCSK9 FRET Assay IC50
Protocol: The PCSK9 binding of the compounds of the disclosure were measured using a time resolved fluorescence resonance energy transfer (TR-FRET) assay. This time resolved fluorescence resonance energy transfer (TR-FRET) assay measures the ability of a compound of the present disclosure to interfere with the binding of human PCSK9 to human LDLR, providing measures of both potency (IC50) and efficacy (Amax).
These solutions were pipetted into columns 1 and 11 of the compound plate. Threefold serial dilutions were generated in columns 2-10 and 12-20 of the compound plate by transferring 10 uL into 20 uL of DMSO. Columns 21 and 22 of the compound plate were negative controls containing DMSO alone.
An intermediate plate was generated in a Greiner V bottom plate by transferring 8 uL from each well of the master plate into a corresponding well containing 92 uL of assay buffer and mixing thoroughly.
A Proxi plate-low volume assay plate was used for the assay. […] For the positive control wells in columns 23 and 24 of the plate, 5 uL of unlabeled human PCSK9 was added at 4 uM in assay buffer containing 8% DMSO. Following a 30 minute incubation, 5 uL of 4 nM Human LDLR extracellular domain-Europium Kryptate was added and the mixture was incubated for an additional 2 hours.
The FRET ratio (FRET/Europium) was used for calculations.
Data is expressed as percent inhibition: (value−0%)/(100%−0%).

Chain of human PCSK9 (Q8NBP7 153-692): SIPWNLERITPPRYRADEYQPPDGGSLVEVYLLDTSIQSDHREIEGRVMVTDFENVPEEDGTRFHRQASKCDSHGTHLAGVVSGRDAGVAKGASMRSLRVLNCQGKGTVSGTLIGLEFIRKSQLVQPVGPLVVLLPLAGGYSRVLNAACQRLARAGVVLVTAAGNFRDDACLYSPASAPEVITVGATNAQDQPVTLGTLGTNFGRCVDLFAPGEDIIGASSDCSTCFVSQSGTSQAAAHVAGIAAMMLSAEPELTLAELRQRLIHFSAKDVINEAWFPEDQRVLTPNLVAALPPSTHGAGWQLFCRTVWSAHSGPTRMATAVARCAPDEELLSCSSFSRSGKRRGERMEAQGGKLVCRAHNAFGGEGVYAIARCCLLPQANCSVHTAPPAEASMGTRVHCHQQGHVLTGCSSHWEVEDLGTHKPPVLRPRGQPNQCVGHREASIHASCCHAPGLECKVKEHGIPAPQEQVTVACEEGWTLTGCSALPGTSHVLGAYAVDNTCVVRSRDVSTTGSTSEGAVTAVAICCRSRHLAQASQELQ
Chain of human PCSK9 (Q8NBP7 31-152 partner limits assumed): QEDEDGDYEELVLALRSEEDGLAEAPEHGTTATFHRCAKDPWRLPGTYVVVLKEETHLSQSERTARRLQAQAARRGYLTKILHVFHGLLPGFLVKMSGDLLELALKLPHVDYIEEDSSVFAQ

Structure (SMILES)	Max % inhibition [%]	IC50 [nM]
COC[C@@H]1NC(=O)[C@@H](COC)N(Cc2ccc(Cl)cc2Oc2ccc(-c3cnc(CN(C)C)n3C)cc2)C(=O)C[C@@H](Cc2ccccc2)C(=O)N(C)[C@H]2CCCC[C@@H]2NC(=O)C[C@H](Cc2ccc(Cl)cc2)N(C)C1=O [Compound 8, (4S,7S,10R,14R,16aS,20aS)-14-benzyl-11-(4-chloro-2-(4-(2-((dimethylamino)methyl)-1-methyl-1H-imidazol-5-yl)phenoxy)benzyl)-4-(4-chlorobenzyl)-7,10-bis(methoxymethyl)-5,16-dimethylhexadecahydrobenzo[l][1,4,7,11,14]pentaazacyclooctadecine-2,6,9,12,15(3H)-pentaone]	101.12	8.9
COC[C@@H]1NC(=O)[C@H](C)N(Cc2ccccc2Oc2ccc(-c3cnc(CN(C)C)n3C)cc2)C(=O)C[C@@H](Cc2ccccc2)C(=O)N(C)[C@@H](C)CNC(=O)C[C@H](Cc2ccc(Cl)cc2)N(C)C1=O [Compound 9, (2S,5S,8S,13S,16R)-16-benzyl-8-(4-chlorobenzyl)-1-(2-(4-(2-((dimethylamino)methyl)-1-methyl-1H-imidazol-5-yl)phenoxy)benzyl)-5-(methoxymethyl)-2,7,13,14-tetramethyl-1,4,7,11,14-pentaazacyclooctadecane-3,6,10,15,18-pentaone]	98.16	3.1
COC[C@@H]1NC(=O)[C@H](CCC(=O)OC(C)(C)C)N(Cc2ccc(Cl)cc2Oc2ccc(-c3cnc(CN(C)C)n3C)cc2)C(=O)C[C@@H](Cc2ccccc2)C(=O)N(C)[C@@H](C)CNC(=O)C[C@H](Cc2ccc(Cl)cc2)N(C)C1=O [Compound 10, tert-butyl 3-((2S,5S,8S,13S,16R)-16-benzyl-1-(4-chloro-2-(4-(2-((dimethylamino)methyl)-1-methyl-1H-imidazol-5-yl)phenoxy)benzyl)-8-(4-chlorobenzyl)-5-(methoxymethyl)-7,13,14-trimethyl-3,6,10,15,18-pentaoxo-1,4,7,11,14-pentaazacyclooctadecan-2-yl)propanoate]	101.88	4.3
COC[C@@H]1NC(=O)[C@H](CO)N(Cc2ccc(Cl)cc2Oc2ccc(-c3cnc(CN(C)C)n3C)cc2)C(=O)C[C@@H](Cc2ccccc2)C(=O)N(C)[C@@H](C)CNC(=O)C[C@H](Cc2ccc(Cl)cc2)N(C)C1=O [Compound 11, (2S,5S,8S,13S,16R)-16-benzyl-1-(4-chloro-2-(4-(2-((dimethylamino)methyl)-1-methyl-1H-imidazol-5-yl)phenoxy)benzyl)-8-(4-chlorobenzyl)-2-(hydroxymethyl)-5-(methoxymethyl)-7,13,14-trimethyl-1,4,7,11,14-pentaazacyclooctadecane-3,6,10,15,18-pentaone]	105.07	2.6
COC[C@@H]1NC(=O)[C@@H](C)N(Cc2ccc(Cl)cc2Oc2ccc(-c3cnc(CN(C)C)n3C)cc2)C(=O)C[C@@H](Cc2ccccc2)C(=O)N(C)[C@@H](C)CNC(=O)C[C@H](Cc2ccc(Cl)cc2)N(C)C1=O [Compound 12, (2R,5S,8S,13S,16R)-16-benzyl-1-(4-chloro-2-(4-(2-((dimethylamino)methyl)-1-methyl-1H-imidazol-5-yl)phenoxy)benzyl)-8-(4-chlorobenzyl)-5-(methoxymethyl)-2,7,13,14-tetramethyl-1,4,7,11,14-pentaazacyclooctadecane-3,6,10,15,18-pentaone]	98.09	74.1
COC[C@H]1C(=O)N(C)[C@@H](Cc2ccc(Cl)cc2)CC(=O)NC[C@H](C)N(C)C(=O)[C@H](Cc2ccccc2)CC(=O)N(Cc2ccc(Cl)cc2Oc2ccc(-c3cnc(CN(C)C)n3C)cc2)[C@H]2CC(=O)N1C2=O [Compound 13, (2S,5S,10S,13R,17S)-13-benzyl-16-(4-chloro-2-(4-(2-((dimethylamino)methyl)-1-methyl-1H-imidazol-5-yl)phenoxy)benzyl)-5-(4-chlorobenzyl)-2-(methoxymethyl)-4,10,11-trimethyl-1,4,8,11,16-pentaazabicyclo[15.2.1]icosane-3,7,12,15,19,20-hexaone]	101.32	106
COC[C@@H]1NC(=O)[C@H](C)N(Cc2ccc(Cl)cc2Oc2ccc(-c3cnc(CN(C)C)n3C)cc2)C(=O)C[C@@H](Cc2ccon2)C(=O)N(C)[C@H]2CCCC[C@@H]2NC(=O)C[C@H](Cc2ccc(Cl)cc2)N(C)C1=O [Compound 18, (4S,7S,10S,14R,16aS,20aS)-11-(4-chloro-2-(4-(2-((dimethylamino)methyl)-1-methyl-1H-imidazol-5-yl)phenoxy)benzyl)-4-(4-chlorobenzyl)-14-(isoxazol-3-ylmethyl)-7-(methoxymethyl)-5,10,16-trimethylhexadecahydrobenzo[l][1,4,7,11,14]pentaazacyclooctadecine-2,6,9,12,15(3H)-pentaone]	86.12	1.1
COC[C@@H]1NC(=O)[C@H](C)N(Cc2ccc(Cl)cc2Oc2ccc(-n3cnc(CN4CCCC4)c3C)cc2)C(=O)C[C@@H](Cc2ccccc2)C(=O)N(C)[C@H]2CCCC[C@@H]2NC(=O)C[C@H](Cc2ccc(Cl)cc2)N(C)C1=O [Compound 19, (4S,7S,10S,14R,16aS,20aS)-14-benzyl-11-(4-chloro-2-(4-(5-methyl-4-(pyrrolidin-1-ylmethyl)-1H-imidazol-1-yl)phenoxy)benzyl)-4-(4-chlorobenzyl)-7-(methoxymethyl)-5,10,16-trimethylhexadecahydrobenzo[l][1,4,7,11,14]pentaazacyclooctadecine-2,6,9,12,15(3H)-pentaone]	106.65	1.5
CC(O)c1ncc(-c2ccc(Oc3cc(Cl)ccc3CN3C(=O)C[C@@H](Cc4ccccc4)C(=O)N(C)[C@@H](C)CNC(=O)C[C@H](Cc4ccc(Cl)cc4)N(C)C(=O)[C@H](CO)NC(=O)[C@@H]3C)cc2)n1C (stereo partly drawn) [Compound 21, (2S,5S,8S,13S,16R)-16-benzyl-1-(4-chloro-2-(4-(2-(1-hydroxyethyl)-1-methyl-1H-imidazol-5-yl)phenoxy)benzyl)-8-(4-chlorobenzyl)-5-(hydroxymethyl)-2,7,13,14-tetramethyl-1,4,7,11,14-pentaazacyclooctadecane-3,6,10,15,18-pentaone]	66.09	2.4

More lines, in order of falling IC50, values ahead:

Max % inhibition [%]	IC50 [nM]	Structure (SMILES)
93.84	307	COC[C@@H]1NC(=O)[C@H](C)N(Cc2ccc(Cl)cc2Oc2ccc(-c3cnc(CN4CCCC4)n3C)cc2)C(=O)C[C@@H](Cc2ccccc2)C(=O)N(C)[C@@H]2CCOC[C@H]2NC(=O)C[C@H](Cc2ccc(Cl)cc2)N(C)C1=O [Compound 14, (4S,7S,10S,14R,16aR,20aS)-14-benzyl-11-(4-chloro-2-(4-(1-methyl-2-(pyrrolidin-1-ylmethyl)-1H-imidazol-5-yl)phenoxy)benzyl)-4-(4-chlorobenzyl)-7-(methoxymethyl)-5,10,16-trimethyltetradecahydro-1H-pyrano[3,4-l][1,4,7,11,14]pentaazacyclooctadecine-2,6,9,12,15(3H)-pentaone]
81.08	61.2	COC[C@@H]1NC(=O)[C@H](CN2CCC2)N(Cc2ccc(Cl)cc2Oc2ccc(-c3cnc(CN(C)C)n3C)cc2)C(=O)C[C@@H](Cc2ccccc2)C(=O)N(C)[C@@H](C)CNC(=O)C[C@H](Cc2ccc(Cl)cc2)N(C)C1=O [Compound 17, (2S,5S,8S,13S,16R)-2-(azetidin-1-ylmethyl)-16-benzyl-1-(4-chloro-2-(4-(2-((dimethylamino)methyl)-1-methyl-1H-imidazol-5-yl)phenoxy)benzyl)-8-(4-chlorobenzyl)-5-(methoxymethyl)-7,13,14-trimethyl-1,4,7,11,14-pentaazacyclooctadecane-3,6,10,15,18-pentaone]
92.71	1.7	COC[C@@H]1NC(=O)[C@H](C)N(Cc2ccc(Cl)cc2Oc2ccc(-c3cnc(CN4CCC4)n3C)cc2)C(=O)C[C@@H](Cc2ccccc2)C(=O)N(C)[C@H]2CCCC[C@@H]2NC(=O)C[C@H](Cc2ccc(Cl)cc2)N(C)C1=O [Compound 16, (4S,7S,10S,14R,16aS,20aS)-11-(2-(4-(2-(azetidin-1-ylmethyl)-1-methyl-1H-imidazol-5-yl)phenoxy)-4-chlorobenzyl)-14-benzyl-4-(4-chlorobenzyl)-7-(methoxymethyl)-5,10,16-trimethylhexadecahydrobenzo[l][1,4,7,11,14]pentaazacyclooctadecine-2,6,9,12,15(3H)-pentaone]
98.33	1.2	COC[C@@H]1NC(=O)[C@H](CC(=O)N2CCOCC2)N(Cc2ccc(Cl)cc2Oc2ccc(-c3cnc(CN(C)C)n3C)cc2)C(=O)C[C@@H](Cc2ccccc2)C(=O)N(C)[C@H]2CCCC[C@@H]2NC(=O)C[C@H](Cc2ccc(Cl)cc2)N(C)C1=O [Compound 20, (4S,7S,10S,14R,16aS,20aS)-14-benzyl-11-(4-chloro-2-(4-(2-((dimethylamino)methyl)-1-methyl-1H-imidazol-5-yl)phenoxy)benzyl)-4-(4-chlorobenzyl)-7-(methoxymethyl)-5,16-dimethyl-10-(2-morpholino-2-oxoethyl)hexadecahydrobenzo[l][1,4,7,11,14]pentaazacyclooctadecine-2,6,9,12,15(3H)-pentaone]
